Experiments:
PC-12 cells = experiment: Cell differentiation-promoting activity: PC-12 cells cultured in culture supernatant of treated 3T3 cells; format: cell-based; conditions: supernatant of 3T3 cells cultured two days with 200 μg/l
Experimental: 3T3 cells, which is fibroblast cell strain known to be present in skin, were cultured for two days under the condition that the milk-derived phospholipid-containing composition of Example 1 or 2 was added at a concentration of 200 μg/l (Example 1: Group A, Example 2: Group B). As a control, 3T3 cells were cultured for two days without adding the milk-derived phospholipid-containing composition obtained in Example 1 or 2 (Group C). PC-12 cells (nerve model cells) were cultured using the culture supernatant thereof, and morphological differentiation of the PC-12 cells was observed. […] It was confirmed that 95% or more of the cells were differentiated when using the culture supernatant of the group A or B. On the other hand, the PC-12 cells were not differentiated when using the culture supernatant of the group C. No differentiation was observed through an optical microscope even though the experiment was repeated several times. It was thus confirmed that the milk-derived phospholipid-containing compositions obtained in Examples 1 and 2 promote differentiation of the PC-12 cells which was nerve model cells.
3T3 cells, which is fibroblast cell strain known to be present in skin, were cultured for two days under the condition that the sphingomyelin obtained in Example 3 was added at a concentration of 200 μg/l (group A). […]

[1] = system: Healthy elderly persons who suffered deterioration in sensation in the hands; experiment: Pain sensation in palm and foot by Algesiometer, oral intake of sphingomyelin (Test Example 5); format: in vivo, human; conditions: for Hand Foot bottom sensation measurement (before intake): Average value / Hand sensation measurement (before intake): Average value / Hand Foot bottom sensation measurement (after intake for 12 weeks): Average value / Hand sensation measurement (after intake for 12 weeks): Average value: Normal 0 to Deterioration III 3 points; for Hand Foot bottom sensation measurement (before intake): Deterioration I / Hand Foot bottom sensation measurement (before intake): Deterioration II / Hand Foot bottom sensation measurement (before intake): Deterioration III / Hand Foot bottom sensation measurement (before intake): Normal / Hand sensation measurement (before intake): Deterioration I / Hand sensation measurement (before intake): Deterioration II / Hand sensation measurement (before intake): Deterioration III / Hand sensation measurement (before intake): Normal / Hand Foot bottom sensation measurement (after intake for 12 weeks): Deterioration I / Hand Foot bottom sensation measurement (after intake for 12 weeks): Deterioration II / Hand Foot bottom sensation measurement (after intake for 12 weeks): Deterioration III / Hand Foot bottom sensation measurement (after intake for 12 weeks): Normal / Hand sensation measurement (after intake for 12 weeks): Deterioration I / Hand sensation measurement (after intake for 12 weeks): Deterioration II / Hand sensation measurement (after intake for 12 weeks): Deterioration III / Hand sensation measurement (after intake for 12 weeks): Normal: subjects per criterion, 15 per group; for sensation in the palm and the bottom of the foot (in words): 12 weeks
Experimental: The pain sensation was evaluated using five pins that differ in thickness in combination with five fulcrum positions. The thinnest pin 1 was rolled along the medial side of the arm, and the subject was asked about the degree of normal pain sensation. The pin 1 was then rolled along the palm and the bottom of the foot while sequentially changing the holder fulcrum position to determine the fulcrum position at which the same pain sensation degree as the first pain sensation occurred. The Algesiometer is designed so that the pain sensations with same degree occur between when rolling the pin 1 (fulcrum: 50 g) along the medial side of the arm and when rolling the pin 2 (fulcrum: 50 g) along the palm. The pain sensation was evaluated as follows in accordance with the instruction manual. The pain sensation was evaluated by points, and the average points were calculated. Normal (0 points): The same pain sensation occurred when rolling the pin 2 (fulcrum: 50 g). Deterioration I (1 point): The same pain sensation occurred when rolling the pin 1 (fulcrum: 50 g). Deterioration II (2 points): The same pain sensation occurred when rolling the pin 1 (fulcrum: 60 g): Deterioration III (3 points): The same pain sensation occurred when rolling the pin 1 (fulcrum: 70 g): Healthy elderly persons (average age: 75±3) who suffered deterioration in sensation in the hands were divided into three groups (one group: 15 subjects). The subjects took the sphingomyelin obtained in Example 4 in an amount of 0 mg, 4 mg, or 8 mg for 12 weeks. The pain sensation in the palm and the arch of the foot was measured with 4 criteria (normal, deteriorations I, II, and III) before the intake and after the intake for 12 weeks with reference to the pain sensation in the medial side of the arm using a pain/touch-pressure sensation measuring device (“Algesiometer” manufactured by Intercross Ltd.) in accordance with the instruction manual. After the intake for 12 weeks, a questionnaire survey on improvement in sensation in the hands was carried out to each elderly person. The measurement method and the evaluation method are the same as those employed in Test Example 4.

[2] = system: Healthy elderly persons who suffered deterioration in sensation in the hands; experiment: Questionnaire survey on improvement in sensation, oral intake of sphingomyelin (Test Example 5); format: in vivo, human; conditions: subjects of 15
Experimental: Healthy elderly persons (average age: 75±3) who suffered deterioration in sensation in the hands were divided into three groups (one group: 15 subjects). The subjects took the sphingomyelin obtained in Example 4 in an amount of 0 mg, 4 mg, or 8 mg for 12 weeks. The pain sensation in the palm and the arch of the foot was measured with 4 criteria (normal, deteriorations I, II, and III) before the intake and after the intake for 12 weeks with reference to the pain sensation in the medial side of the arm using a pain/touch-pressure sensation measuring device (“Algesiometer” manufactured by Intercross Ltd.) in accordance with the instruction manual. After the intake for 12 weeks, a questionnaire survey on improvement in sensation in the hands was carried out to each elderly person. The measurement method and the evaluation method are the same as those employed in Test Example 4.

For sphingomyelin [Example 3], the “morphological differentiation of PC-12 cells” value (PC-12 cells) was “highly differentiated” and the “differentiation rate of PC-12 cells” value (PC-12 cells; optical microscope) was no less than 94%.

In the case of sphingomyelin [Example 4], the “Hand Foot bottom sensation measurement (before intake): Average value” ([1]; 4 mg group) is reported as 2.1 points, the “Hand sensation measurement (before intake): Average value” ([1]; 4 mg group) is reported as 2.1 points and the “Hand Foot bottom sensation measurement (before intake): Deterioration I” value ([1]; 4 mg group) is reported as 3. For the same substance, the “Hand Foot bottom sensation measurement (before intake): Deterioration II” value ([1]; 4 mg group) was 7, the “Hand Foot bottom sensation measurement (before intake): Deterioration III” value ([1]; 4 mg group) was 5 and the “Hand Foot bottom sensation measurement (before intake): Normal” value ([1]; 4 mg group) was 0. The “Hand sensation measurement (before intake): Deterioration I” value ([1]; 4 mg group) was 3, the “Hand sensation measurement (before intake): Deterioration II” value ([1]; 4 mg group) was 7 and the “Hand sensation measurement (before intake): Deterioration III” value ([1]; 4 mg group) was 5. For the same substance, the “Hand sensation measurement (before intake): Normal” value ([1]; 4 mg group) was 0, the “Hand Foot bottom sensation measurement (before intake): Average value” ([1]; 8 mg group) was 2.3 points and the “Hand sensation measurement (before intake): Average value” ([1]; 8 mg group) was 2.3 points. The “Hand Foot bottom sensation measurement (before intake): Deterioration I” value ([1]; 8 mg group) was 2, the “Hand Foot bottom sensation measurement (before intake): Deterioration II” value ([1]; 8 mg group) was 7 and the “Hand Foot bottom sensation measurement (before intake): Deterioration III” value ([1]; 8 mg group) was 6. The “Hand Foot bottom sensation measurement (before intake): Normal” value ([1]; 8 mg group) was 0, the “Hand sensation measurement (before intake): Deterioration I” value ([1]; 8 mg group) was 2 and the “Hand sensation measurement (before intake): Deterioration II” value ([1]; 8 mg group) was 6. The “Hand sensation measurement (before intake): Deterioration III” value ([1]; 8 mg group) was 7, the “Hand sensation measurement (before intake): Normal” value ([1]; 8 mg group) was 0 and the “sensation in the palm and the bottom of the foot (in words)” value ([1]; intake 4 mg) was “tended to be improved”. For the same substance, the “Hand Foot bottom sensation measurement (after intake for 12 weeks): Average value” ([1]; intake 4 mg) was 1.7 points, the “Hand sensation measurement (after intake for 12 weeks): Average value” ([1]; intake 4 mg) was 1.5 points and the “Hand Foot bottom sensation measurement (after intake for 12 weeks): Deterioration I” value ([1]; intake 4 mg) was 5. For the same substance, the “Hand Foot bottom sensation measurement (after intake for 12 weeks): Deterioration II” value ([1]; intake 4 mg) was 7, the “Hand Foot bottom sensation measurement (after intake for 12 weeks): Deterioration III” value ([1]; intake 4 mg) was 2 and the “Hand Foot bottom sensation measurement (after intake for 12 weeks): Normal” value ([1]; intake 4 mg) was 1. For the same substance, the “Hand sensation measurement (after intake for 12 weeks): Deterioration I” value ([1]; intake 4 mg) was 5, the “Hand sensation measurement (after intake for 12 weeks): Deterioration II” value ([1]; intake 4 mg) was 6 and the “Hand sensation measurement (after intake for 12 weeks): Deterioration III” value ([1]; intake 4 mg) was 2. The “Hand sensation measurement (after intake for 12 weeks): Normal” value ([1]; intake 4 mg) was 2, the “sensation in the palm and the bottom of the foot (in words)” value ([1]; intake 8 mg) was “significantly improved” and the “Hand Foot bottom sensation measurement (after intake for 12 weeks): Average value” ([1]; intake 8 mg) was 1.6 points. For the same substance, the “Hand sensation measurement (after intake for 12 weeks): Average value” ([1]; intake 8 mg) was 1.3 points, the “Hand Foot bottom sensation measurement (after intake for 12 weeks): Deterioration I” value ([1]; intake 8 mg) was 7 and the “Hand Foot bottom sensation measurement (after intake for 12 weeks): Deterioration II” value ([1]; intake 8 mg) was 4. The “Hand Foot bottom sensation measurement (after intake for 12 weeks): Deterioration III” value ([1]; intake 8 mg) was 3, the “Hand Foot bottom sensation measurement (after intake for 12 weeks): Normal” value ([1]; intake 8 mg) was 1 and the “Hand sensation measurement (after intake for 12 weeks): Deterioration I” value ([1]; intake 8 mg) was 7. For the same substance, the “Hand sensation measurement (after intake for 12 weeks): Deterioration II” value ([1]; intake 8 mg) was 3, the “Hand sensation measurement (after intake for 12 weeks): Deterioration III” value ([1]; intake 8 mg) was 2 and the “Hand sensation measurement (after intake for 12 weeks): Normal” value ([1]; intake 8 mg) was 3. For the same substance, the “Foot sensation: Improved” value ([2]; intake 4 mg for 12 weeks) was 5, the “Foot sensation: Same” value ([2]; intake 4 mg for 12 weeks) was 9 and the “Foot sensation: Worsened” value ([2]; intake 4 mg for 12 weeks) was 1. For the same substance, the “Hand sensation: Improved” value ([2]; intake 4 mg for 12 weeks) was 6, the “Hand sensation: Same” value ([2]; intake 4 mg for 12 weeks) was 7 and the “Hand sensation: Worsened” value ([2]; intake 4 mg for 12 weeks) was 2. For the same substance, the “Foot sensation: Improved” value ([2]; intake 8 mg for 12 weeks) was 8, the “Foot sensation: Same” value ([2]; intake 8 mg for 12 weeks) was 7 and the “Foot sensation: Worsened” value ([2]; intake 8 mg for 12 weeks) was 0. The “Hand sensation: Improved” value ([2]; intake 8 mg for 12 weeks) was 10, the “Hand sensation: Same” value ([2]; intake 8 mg for 12 weeks) was 4 and the “Hand sensation: Worsened” value ([2]; intake 8 mg for 12 weeks) was 1.
